Source: US20020090373A1, “ADAMTS polypeptides, nucleic acids encoding them, and uses thereof” (priority 2000, published 2002)

T1: Recombinant human ADAMTS-SI (Homo sapiens, UniProt Q9P2N4)
T1 construct: made in house
T1 sequence (Q9P2N4 288-1629 isoform Q9P2N4-1 limits assumed): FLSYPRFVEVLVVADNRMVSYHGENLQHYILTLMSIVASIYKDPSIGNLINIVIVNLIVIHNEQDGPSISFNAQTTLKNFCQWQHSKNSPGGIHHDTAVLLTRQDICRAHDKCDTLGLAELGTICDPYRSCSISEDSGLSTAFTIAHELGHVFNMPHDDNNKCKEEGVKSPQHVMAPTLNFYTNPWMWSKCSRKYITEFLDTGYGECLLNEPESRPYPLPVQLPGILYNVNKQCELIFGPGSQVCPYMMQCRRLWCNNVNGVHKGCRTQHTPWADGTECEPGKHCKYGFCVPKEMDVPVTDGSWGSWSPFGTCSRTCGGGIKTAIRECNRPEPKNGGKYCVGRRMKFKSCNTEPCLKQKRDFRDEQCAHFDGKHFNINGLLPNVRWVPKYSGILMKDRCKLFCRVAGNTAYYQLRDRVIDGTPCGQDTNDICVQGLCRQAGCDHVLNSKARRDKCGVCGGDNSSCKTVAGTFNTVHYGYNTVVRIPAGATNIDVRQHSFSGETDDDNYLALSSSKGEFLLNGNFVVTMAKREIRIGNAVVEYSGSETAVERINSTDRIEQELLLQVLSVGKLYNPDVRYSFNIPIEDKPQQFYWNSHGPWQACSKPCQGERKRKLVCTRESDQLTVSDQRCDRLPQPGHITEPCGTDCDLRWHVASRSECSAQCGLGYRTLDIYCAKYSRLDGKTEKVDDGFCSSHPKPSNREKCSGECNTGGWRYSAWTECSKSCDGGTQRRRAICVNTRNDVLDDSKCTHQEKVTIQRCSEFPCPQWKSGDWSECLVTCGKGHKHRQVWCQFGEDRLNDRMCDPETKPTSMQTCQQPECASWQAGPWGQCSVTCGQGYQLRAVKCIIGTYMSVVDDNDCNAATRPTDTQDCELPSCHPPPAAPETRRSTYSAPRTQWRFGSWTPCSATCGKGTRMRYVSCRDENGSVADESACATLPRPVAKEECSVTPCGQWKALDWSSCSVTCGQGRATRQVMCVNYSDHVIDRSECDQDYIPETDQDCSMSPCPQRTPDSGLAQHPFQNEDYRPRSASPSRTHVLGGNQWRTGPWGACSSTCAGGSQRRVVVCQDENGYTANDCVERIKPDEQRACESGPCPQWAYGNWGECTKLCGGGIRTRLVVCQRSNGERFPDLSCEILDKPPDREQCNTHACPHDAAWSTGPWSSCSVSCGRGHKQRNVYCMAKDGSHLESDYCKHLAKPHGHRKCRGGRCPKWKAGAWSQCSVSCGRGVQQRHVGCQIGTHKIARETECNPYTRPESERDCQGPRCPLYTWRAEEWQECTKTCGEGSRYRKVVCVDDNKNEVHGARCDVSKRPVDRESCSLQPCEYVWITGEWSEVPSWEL

T2: recombinant human ADAMTS-4 (Homo sapiens, UniProt O75173)
T2 sequence (O75173 213-837): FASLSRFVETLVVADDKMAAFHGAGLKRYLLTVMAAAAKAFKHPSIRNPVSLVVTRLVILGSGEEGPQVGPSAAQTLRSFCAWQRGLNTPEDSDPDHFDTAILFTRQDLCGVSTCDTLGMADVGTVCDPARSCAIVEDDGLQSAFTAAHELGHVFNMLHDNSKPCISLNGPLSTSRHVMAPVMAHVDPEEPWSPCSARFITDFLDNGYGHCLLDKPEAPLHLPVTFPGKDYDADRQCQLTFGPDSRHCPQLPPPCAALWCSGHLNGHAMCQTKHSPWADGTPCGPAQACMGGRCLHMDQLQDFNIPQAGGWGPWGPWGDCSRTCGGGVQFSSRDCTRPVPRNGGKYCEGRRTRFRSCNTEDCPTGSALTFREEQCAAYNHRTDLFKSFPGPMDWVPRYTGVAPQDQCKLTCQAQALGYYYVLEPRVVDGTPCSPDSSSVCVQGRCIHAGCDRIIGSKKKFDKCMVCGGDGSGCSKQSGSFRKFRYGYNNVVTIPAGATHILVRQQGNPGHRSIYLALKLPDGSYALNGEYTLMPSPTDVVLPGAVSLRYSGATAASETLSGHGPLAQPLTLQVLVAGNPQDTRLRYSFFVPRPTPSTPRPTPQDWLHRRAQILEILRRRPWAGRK


Assays:
[1] = system: IL-1 induced aggrecan degradation in human osteoarthritic cartilage explants; details: cited from earlier work
[2] = molecular target: T1, Recombinant human ADAMTS-SI; assay: Western blot (anti-NITEGE neoepitope) of aggrecanase substrate cleavage by ADAMTS-SI ± compound I; type: biochemical; details: 1 μM compound I, 1 μM substrate, 18 hours at 37° C., FIG. 8
Procedure: (§1) Recombinant human ADAMTS-SI (20 μl) and recombinant human ADAMTS-4 (MD Tortorella, Science, 284:1664) (20 μl) were incubated with 1 μM of aggrecanase substrate (aggrecan protein containing the interglobular domain (IGD)). The substrate is cleaved at the relevant aggrecanase site by aggrecanases such as ADAMTS-4. […] The aggrecanase substrate has been used to assess the activity of various aggrecanases, such as ADAMTS-4, and their inhibitors, such as compound I, shown below, and described in EP 1081137, published Mar. 7, 2001: [drawing 1]
(§2) Incubations were carried out in 20 μl TSC buffer (50 mM Tris, pH 7.5 100 mM NaCl, 10 mM CaCl2) with protease inhibitor cocktail (“Complete”, EDTA free from Roche: catalog number 1873580)±1 μM compound I, for 18 hours at 37° C. The reactions were stopped by the addition of EDTA to 10 mM final concentration. The reaction mixtures were prepared for SDS-PAGE by the addition of 40 μl 2× sample buffer (Novex) containing 0.5 M DTT and then separated on 4-20% Tris glycine gels (Novex). […]
(§3) Treatment of the aggrecan protein with aggrecanases results in the formation of a characteristic cleavage site in the IGD. […] The crude rabbit antiserum was affinity purified against the corresponding neoepitope sequence and absorbed against a read-through peptide to ensure specificity for the neoepitope sequence. […]

[3] = molecular target: T2, recombinant human ADAMTS-4; assay: Western blot (anti-NITEGE neoepitope) of aggrecanase substrate cleavage by ADAMTS-4 ± compound I; type: biochemical; details: 1 μM compound I, 1 μM substrate, 18 hours at 37° C., FIG. 8
Procedure: as §1, §2, §3

[4] = molecular target: aggrecanase activity secreted by human osteoarthritic cartilage; details: cited from earlier work
[5] = system: aggrecan degradation induced by intraarticular injection of IL-1; details: hamsters, intraarticular injection of IL-1, 30 mg/kg p.o.; cited from earlier work
[6] = molecular target: aggrecanase substrate (aggrecan protein containing the interglobular domain (IGD)), uncleaved
[7] = system: aggrecanase substrate (aggrecan protein containing the interglobular domain (IGD)); assay: Cleavage of aggrecanase substrate by recombinant enzymes (anti-NITEGE Western blot); type: biochemical; details: 20 μl enzyme, 1 μM substrate, 18 hours at 37° C., FIG. 8
Procedure: as §1, §2, §3

Row | inhibition of ADAMTS-SI aggrecanase activity (cleavage of aggrecanase substrate) [2] | inhibition of ADAMTS-4 aggrecanase activity (cleavage of aggrecanase substrate) [3] | Molecule | IC50 [1] [nM] | IC50 [4] [nM] | inhibition of aggrecan degradation [5] [% inhibition] | cleavage of the aggrecanase substrate at the aggrecanase site (Western blot with anti-NITEGE neoepitope antibody) [6] | cleavage of aggrecanase substrate at aggrecanase site (NITEGE neoepitope) [7]
1 | blocked | blocked | C[C@@]1(O)CCCN(S(=O)(=O)c2ccc(OCc3ccc(F)cc3Cl)cc2)[C@H]1C(=O)NO [compound I] | 8 | 4.1 | 93 |  | 
2 |  |  | recombinant human ADAMTS-4 (protein) FASLSRFVETLVVADDKMAAFHGAGLKRYLLTVMAAAAKAFKHPSIRNPVSLVVTRLVILGSGEEGPQVGPSAAQTLRSFCAWQRGLNTPEDSDPDHFDTAILFTRQDLCGVSTCDTLGMADVGTVCDPARSCAIVEDDGLQSAFTAAHELGHVFNMLHDNSKPCISLNGPLSTSRHVMAPVMAHVDPEEPWSPCSARFITDFLDNGYGHCLLDKPEAPLHLPVTFPGKDYDADRQCQLTFGPDSRHCPQLPPPCAALWCSGHLNGHAMCQTKHSPWADGTPCGPAQACMGGRCLHMDQLQDFNIPQAGGWGPWGPWGDCSRTCGGGVQFSSRDCTRPVPRNGGKYCEGRRTRFRSCNTEDCPTGSALTFREEQCAAYNHRTDLFKSFPGPMDWVPRYTGVAPQDQCKLTCQAQALGYYYVLEPRVVDGTPCSPDSSSVCVQGRCIHAGCDRIIGSKKKFDKCMVCGGDGSGCSKQSGSFRKFRYGYNNVVTIPAGATHILVRQQGNPGHRSIYLALKLPDGSYALNGEYTLMPSPTDVVLPGAVSLRYSGATAASETLSGHGPLAQPLTLQVLVAGNPQDTRLRYSFFVPRPTPSTPRPTPQDWLHRRAQILEILRRRPWAGRK |  |  |  | treatment of the substrate with both ADAMTS-4 and ADAMTS-SI resulted in cleavage at the previously characterized aggrecanase cleavage site | resulted in cleavage at the previously characterized aggrecanase cleavage site
3 |  |  | Recombinant human ADAMTS-SI (protein) FLSYPRFVEVLVVADNRMVSYHGENLQHYILTLMSIVASIYKDPSIGNLINIVIVNLIVIHNEQDGPSISFNAQTTLKNFCQWQHSKNSPGGIHHDTAVLLTRQDICRAHDKCDTLGLAELGTICDPYRSCSISEDSGLSTAFTIAHELGHVFNMPHDDNNKCKEEGVKSPQHVMAPTLNFYTNPWMWSKCSRKYITEFLDTGYGECLLNEPESRPYPLPVQLPGILYNVNKQCELIFGPGSQVCPYMMQCRRLWCNNVNGVHKGCRTQHTPWADGTECEPGKHCKYGFCVPKEMDVPVTDGSWGSWSPFGTCSRTCGGGIKTAIRECNRPEPKNGGKYCVGRRMKFKSCNTEPCLKQKRDFRDEQCAHFDGKHFNINGLLPNVRWVPKYSGILMKDRCKLFCRVAGNTAYYQLRDRVIDGTPCGQDTNDICVQGLCRQAGCDHVLNSKARRDKCGVCGGDNSSCKTVAGTFNTVHYGYNTVVRIPAGATNIDVRQHSFSGETDDDNYLALSSSKGEFLLNGNFVVTMAKREIRIGNAVVEYSGSETAVERINSTDRIEQELLLQVLSVGKLYNPDVRYSFNIPIEDKPQQFYWNSHGPWQACSKPCQGERKRKLVCTRESDQLTVSDQRCDRLPQPGHITEPCGTDCDLRWHVASRSECSAQCGLGYRTLDIYCAKYSRLDGKTEKVDDGFCSSHPKPSNREKCSGECNTGGWRYSAWTECSKSCDGGTQRRRAICVNTRNDVLDDSKCTHQEKVTIQRCSEFPCPQWKSGDWSECLVTCGKGHKHRQVWCQFGEDRLNDRMCDPETKPTSMQTCQQPECASWQAGPWGQCSVTCGQGYQLRAVKCIIGTYMSVVDDNDCNAATRPTDTQDCELPSCHPPPAAPETRRSTYSAPRTQWRFGSWTPCSATCGKGTRMRYVSCRDENGSVADESACATLPRPVAKEECSVTPCGQWKALDWSSCSVTCGQGRATRQVMCVNYSDHVIDRSECDQDYIPETDQDCSMSPCPQRTPDSGLAQHPFQNEDYRPRSASPSRTHVLGGNQWRTGPWGACSSTCAGGSQRRVVVCQDENGYTANDCVERIKPDEQRACESGPCPQWAYGNWGECTKLCGGGIRTRLVVCQRSNGERFPDLSCEILDKPPDREQCNTHACPHDAAWSTGPWSSCSVSCGRGHKQRNVYCMAKDGSHLESDYCKHLAKPHGHRKCRGGRCPKWKAGAWSQCSVSCGRGVQQRHVGCQIGTHKIARETECNPYTRPESERDCQGPRCPLYTWRAEEWQECTKTCGEGSRYRKVVCVDDNKNEVHGARCDVSKRPVDRESCSLQPCEYVWITGEWSEVPSWEL |  |  |  | treatment of the substrate with both ADAMTS-4 and ADAMTS-SI resulted in cleavage at the previously characterized aggrecanase cleavage site | 
